Assays:
Assay in all cases: MIC on MS agar medium, cross-resistance to herbicides
Assay type in all cases: cell-based, Nicotiana tabacum
ETR-056 = test system: ETR-056
Text: (§1) Further, cross-resistance of a resistant strain tolerant to herbicides with various modes of action was examined. Sensitivity to fomesafen (trade mark: FLEX) and oxadiazon (trade mark: RONSTAR), which are photobleaching herbicide and accumulate protoporphyrin IX; pyrazoxyfen (trademark: PAICER) which is a chlorophyll synthesis inhibitor and causes bleaching; DPX-84 and bialaphos (trademark: BASTA) and glyphosate (trademark: ROUNDUP) which are an inhibitor of the amino acid synthesis; butachlor (trademark: MACHETE) which is a protein synthesis inhibitor; propanil (trademark: STAM) which is an inhibitor of light synthesis photochemical system II and paraquat (trademark: PREEGLOX) which is an inhibitor of photosystem I and produces an active oxygen was compared. Into MS agar medium containing each herbicides, each resistant strain was transplanted and minimum inhibition concentration (MIC) was measured. […] From the above results, ETR-056 was thought to have resistance to an active oxygen caused by overproduction of superoxide dismutase, and ETR-253 was thought to have resistance to many herbicides caused by decreasing of a membrane permeability, and ETR-245 was thought to have resistance caused by mutation of a target enzyme or overproduction of a target enzyme.
(§2) MIC of compound A to the sensitive cell lines, ETR-056, ETR-245 and ETR-253 were measured.

ETR-245 = test system: ETR-245
Text: as §1, §2

ETR-253 = test system: ETR-253
Text: as §1, §2

Sensitive strain = details: Sensitive strain
Text: as §1, §2

Structure (SMILES)	MIC (ppm) (ETR-056)	MIC (ppm) (ETR-245)	MIC (ppm) (ETR-253)	MIC (ppm) (Sensitive strain)
O=C(O)CNCP(=O)(O)O [glyphosate]	230 ppm	230 ppm	1000 ppm	230 ppm
C[C@H](NC(=O)[C@H](C)NC(=O)[C@@H](N)CCP(C)(=O)O)C(=O)O [bialaphos]	1 ppm	1 ppm	10 ppm	10 ppm
CCCCOCN(C(=O)CCl)c1c(CC)cccc1CC [butachlor]	100 ppm	100 ppm	100 ppm	100 ppm
CC(C)Oc1cc(-n2nc(C(C)(C)C)oc2=O)c(Cl)cc1Cl [oxadiazon]	1000 ppm	1000 ppm	1000 ppm	1 ppm
C[n+]1ccc(-c2cc[n+](C)cc2)cc1 [paraquat]	100 ppm	10 ppm	10 ppm	10 ppm
COC(=O)c1ccccc1CS(=O)(=O)NC(=O)Nc1nc(OC)cc(OC)n1 [DPX-84]	0.01 ppm	0.01 ppm	0.1 ppm	0.01 ppm
CS(=O)(=O)NC(=O)c1cc(Oc2ccc(C(F)(F)F)cc2Cl)ccc1[N+](=O)[O-] [fomesafen]	4 ppm	4 ppm	4 ppm	0.4 ppm
CCC(=O)Nc1ccc(Cl)c(Cl)c1 [propanil]	100 ppm	100 ppm	100 ppm	100 ppm
Cc1nn(C)c(OCC(=O)c2ccccc2)c1C(=O)c1ccc(Cl)cc1Cl [pyrazoxyfen]	100 ppm	100 ppm	200 ppm	100 ppm

Source: patent publication US6905852B1, “Herbicide-resistant protoporphyrinogen oxidase isolated from Nicotiana tabacum” (Nihon Nohyaku Co., Ltd., priority 1997, dated 2005)
